According to ChEMBL document CHEMBL3045021, “Synthesis, antibacterial, and antifungal activities of biolabile (E)-1-(4-morpholinophenyl)-3-aryl-prop-2-en-1-ones” (2009):
Calls of active or inactive are those of the source. No cut-off for these calls is given here.

Key:
Assay type in all cases: functional
[1] = system: Rhizopus; test: Antimicrobial activity against Rhizopus at 100 ppm after 72 to 96 hr by disk diffusion method
[2] = system: Pseudomonas; test: Antimicrobial activity against Pseudomonas at 200 ppm after 24 hr by disk diffusion method; settings: read-out: IZ
[3] = system: Rhizopus; test: Antimicrobial activity against Rhizopus at 500 ppm after 72 to 96 hr by disk diffusion method; settings: read-out: IZ
[4] = system: Mucor; test: Antimicrobial activity against Mucor at 500 ppm after 72 to 96 hr by disk diffusion method; settings: read-out: IZ
[5] = system: Vibrio cholerae; test: Antimicrobial activity against Vibrio cholerae at 100 ppm after 24 hr by disk diffusion method
[6] = system: Aspergillus flavus; test: Antimicrobial activity against Aspergillus flavus at 200 ppm after 72 to 96 hr by disk diffusion method; settings: read-out: IZ
[7] = system: Pseudomonas; test: Antimicrobial activity against Pseudomonas at 100 ppm after 24 hr by disk diffusion method; settings: for zone of inhibition at 100 ppm: read-out: IZ
[8] = system: Mucor; test: Antimicrobial activity against Mucor at 200 ppm after 72 to 96 hr by disk diffusion method; settings: read-out: IZ
[9] = system: Nannizzia gypsea; test: Antimicrobial activity against Microsporum gypseum at 100 ppm after 72 to 96 hr by disk diffusion method; settings: for zone of inhibition at 100 ppm: read-out: IZ
[10] = system: Nannizzia gypsea; test: Antimicrobial activity against Microsporum gypseum at 500 ppm after 72 to 96 hr by disk diffusion method; settings: read-out: IZ
[11] = system: Nannizzia gypsea; test: Antimicrobial activity against Microsporum gypseum at 200 ppm after 72 to 96 hr by disk diffusion method; settings: read-out: IZ
[12] = system: Vibrio cholerae; test: Antimicrobial activity against Vibrio cholerae at 200 ppm after 24 hr by disk diffusion method; settings: read-out: IZ
[13] = system: Klebsiella pneumoniae; test: Antimicrobial activity against Klebsiella pneumoniae at 200 ppm after 24 hr by disk diffusion method; settings: read-out: IZ
[14] = system: Salmonella typhi; test: Antimicrobial activity against Salmonella enterica subsp. enterica serovar Typhi at 100 ppm after 24 hr by disk diffusion method
[15] = system: Streptococcus; test: Antimicrobial activity against beta-hemolytic Streptococcus at 100 ppm after 24 hr by disk diffusion method; settings: for zone of inhibition at 100 ppm: read-out: IZ
[16] = system: Escherichia coli; test: Antimicrobial activity against Escherichia coli at 500 ppm after 24 hr by disk diffusion method; settings: read-out: IZ
[17] = system: Klebsiella pneumoniae; test: Antimicrobial activity against Klebsiella pneumoniae at 100 ppm after 24 hr by disk diffusion method
[18] = system: Aspergillus flavus; test: Antimicrobial activity against Aspergillus flavus at 100 ppm after 72 to 96 hr by disk diffusion method; settings: read-out: IZ
[19] = system: Salmonella typhi; test: Antimicrobial activity against Salmonella enterica subsp. enterica serovar Typhi at 500 ppm after 24 hr by disk diffusion method; settings: read-out: IZ
[20] = system: Salmonella typhi; test: Antimicrobial activity against Salmonella enterica subsp. enterica serovar Typhi at 200 ppm after 24 hr by disk diffusion method; settings: read-out: IZ
[21] = system: Staphylococcus aureus; test: Antimicrobial activity against Staphylococcus aureus at 500 ppm after 24 hr by disk diffusion method; settings: read-out: IZ
[22] = system: Shigella flexneri; test: Antimicrobial activity against Shigella flexneri at 500 ppm after 24 hr by disk diffusion method; settings: read-out: IZ
[23] = system: Streptococcus; test: Antimicrobial activity against beta-hemolytic Streptococcus at 200 ppm after 24 hr by disk diffusion method; settings: read-out: IZ
[24] = system: Streptococcus; test: Antimicrobial activity against beta-hemolytic Streptococcus at 500 ppm after 24 hr by disk diffusion method; settings: read-out: IZ
[25] = system: Staphylococcus aureus; test: Antimicrobial activity against Staphylococcus aureus at 100 ppm after 24 hr by disk diffusion method; settings: for zone of inhibition at 100 ppm: read-out: IZ
[26] = system: Klebsiella pneumoniae; test: Antimicrobial activity against Klebsiella pneumoniae at 500 ppm after 24 hr by disk diffusion method; settings: read-out: IZ
[27] = system: Escherichia coli; test: Antimicrobial activity against Escherichia coli at 100 ppm after 24 hr by disk diffusion method
[28] = system: Escherichia coli; test: Antimicrobial activity against Escherichia coli at 200 ppm after 24 hr by disk diffusion method; settings: read-out: IZ
[29] = system: Staphylococcus aureus; test: Antimicrobial activity against Staphylococcus aureus at 200 ppm after 24 hr by disk diffusion method; settings: read-out: IZ
[30] = system: Shigella flexneri; test: Antimicrobial activity against Shigella flexneri at 100 ppm after 24 hr by disk diffusion method
[31] = system: Aspergillus flavus; test: Antimicrobial activity against Aspergillus flavus at 500 ppm after 72 to 96 hr by disk diffusion method; settings: read-out: IZ
[32] = system: Shigella flexneri; test: Antimicrobial activity against Shigella flexneri at 200 ppm after 24 hr by disk diffusion method; settings: read-out: IZ
[33] = system: Mucor; test: Antimicrobial activity against Mucor at 100 ppm after 72 to 96 hr by disk diffusion method
[34] = system: Pseudomonas; test: Antimicrobial activity against Pseudomonas at 500 ppm after 24 hr by disk diffusion method; settings: read-out: IZ
[35] = system: Rhizopus; test: Antimicrobial activity against Rhizopus at 200 ppm after 72 to 96 hr by disk diffusion method; settings: read-out: IZ
[36] = system: Vibrio cholerae; test: Antimicrobial activity against Vibrio cholerae at 500 ppm after 24 hr by disk diffusion method; settings: read-out: IZ

| Compound | inhibition zone (IZ) [1] | zone of inhibition at 200 ppm [2] | zone of inhibition at 500 ppm [3] | zone of inhibition at 500 ppm [4] | inhibition zone (IZ) [5] | zone of inhibition at 200 ppm [6] | zone of inhibition at 200 ppm [8] | zone of inhibition at 500 ppm [10] | zone of inhibition at 200 ppm [11] | zone of inhibition at 200 ppm [12] | zone of inhibition at 200 ppm [13] | inhibition zone (IZ) [14] | zone of inhibition at 500 ppm [16] | zone of inhibition at 100 ppm [18] | zone of inhibition at 500 ppm [19] | zone of inhibition at 200 ppm [20] | zone of inhibition at 500 ppm [21] | zone of inhibition at 500 ppm [22] | zone of inhibition at 200 ppm [23] | zone of inhibition at 500 ppm [24] | also measured |
| --- | --- | --- | --- | --- | --- | --- | --- | --- | --- | --- | --- | --- | --- | --- | --- | --- | --- | --- | --- | --- | --- |
| O=C(/C=C/c1ccccc1)c1ccc(N2CCOCC2)cc1 | inactive | 22 mm | 17 mm | 17 mm | inactive | 17 mm | 12 mm | 17 mm | 12 mm | 17 mm | 12 mm | inactive | 17 mm | 12 mm | 17 mm | 12 mm | 22 mm | 22 mm | 17 mm | 22 mm | zone of inhibition at 100 ppm [7]: 17 mm; inhibition zone (IZ) [9]: inactive; zone of inhibition at 100 ppm [15]: 12 mm; zone of inhibition at 100 ppm ([17]; read-out: IZ): 12 mm; zone of inhibition at 100 ppm [25]: 12 mm; zone of inhibition at 500 ppm [26]: 22 mm; inhibition zone (IZ) [27]: inactive; zone of inhibition at 200 ppm [28]: 17 mm; zone of inhibition at 200 ppm [29]: 17 mm; inhibition zone (IZ) [30]: inactive; zone of inhibition at 500 ppm [31]: 17 mm; zone of inhibition at 200 ppm [32]: 17 mm; inhibition zone (IZ) [33]: inactive; zone of inhibition at 500 ppm [34]: 30 mm; zone of inhibition at 200 ppm [35]: 12 mm; zone of inhibition at 500 ppm [36]: 17 mm |
| COc1ccc(/C=C/C(=O)c2ccc(N3CCOCC3)cc2)cc1 | inactive | 22 mm | 17 mm | 17 mm | inactive | 12 mm | 12 mm | 17 mm | 12 mm | 12 mm | 17 mm | inactive | 17 mm | 12 mm | 17 mm | 12 mm | 30 mm | 22 mm | 22 mm | 30 mm | zone of inhibition at 100 ppm [7]: 12 mm; zone of inhibition at 100 ppm [9]: 12 mm; zone of inhibition at 100 ppm [15]: 12 mm; inhibition zone (IZ) [17]: inactive; zone of inhibition at 100 ppm [25]: 12 mm; zone of inhibition at 500 ppm [26]: 30 mm; inhibition zone (IZ) [27]: inactive; zone of inhibition at 200 ppm [28]: 12 mm; zone of inhibition at 200 ppm [29]: 22 mm; inhibition zone (IZ) [30]: inactive; zone of inhibition at 500 ppm [31]: 17 mm; zone of inhibition at 200 ppm [32]: 17 mm; inhibition zone (IZ) [33]: inactive; zone of inhibition at 500 ppm [34]: 30 mm; zone of inhibition at 200 ppm [35]: 12 mm; zone of inhibition at 500 ppm [36]: 17 mm |
| O=C(/C=C/c1cccc([N+](=O)[O-])c1)c1ccc(N2CCOCC2)cc1 | inactive | 22 mm | 22 mm | 22 mm | inactive | 17 mm | 17 mm | 22 mm | 17 mm | 12 mm | 17 mm | inactive | 22 mm | 12 mm | 17 mm | 12 mm | 22 mm | 22 mm | 17 mm | 22 mm | inhibition zone (IZ) [7]: inactive; zone of inhibition at 100 ppm [9]: 12 mm; inhibition zone (IZ) [15]: inactive; inhibition zone (IZ) [17]: inactive; inhibition zone (IZ) [25]: inactive; zone of inhibition at 500 ppm [26]: 22 mm; inhibition zone (IZ) [27]: inactive; zone of inhibition at 200 ppm [28]: 17 mm; zone of inhibition at 200 ppm [29]: 17 mm; zone of inhibition at 100 ppm ([30]; read-out: IZ): 12 mm; zone of inhibition at 500 ppm [31]: 22 mm; zone of inhibition at 200 ppm [32]: 17 mm; inhibition zone (IZ) [33]: inactive; zone of inhibition at 500 ppm [34]: 30 mm; zone of inhibition at 200 ppm [35]: 17 mm; zone of inhibition at 500 ppm [36]: 17 mm |
